Series [1] addresses T1, beta-catenin-B-cell lymphoma 9 protein complex (Homo sapiens, UniProt P35222).
T1 sequence (P35222 whole entry): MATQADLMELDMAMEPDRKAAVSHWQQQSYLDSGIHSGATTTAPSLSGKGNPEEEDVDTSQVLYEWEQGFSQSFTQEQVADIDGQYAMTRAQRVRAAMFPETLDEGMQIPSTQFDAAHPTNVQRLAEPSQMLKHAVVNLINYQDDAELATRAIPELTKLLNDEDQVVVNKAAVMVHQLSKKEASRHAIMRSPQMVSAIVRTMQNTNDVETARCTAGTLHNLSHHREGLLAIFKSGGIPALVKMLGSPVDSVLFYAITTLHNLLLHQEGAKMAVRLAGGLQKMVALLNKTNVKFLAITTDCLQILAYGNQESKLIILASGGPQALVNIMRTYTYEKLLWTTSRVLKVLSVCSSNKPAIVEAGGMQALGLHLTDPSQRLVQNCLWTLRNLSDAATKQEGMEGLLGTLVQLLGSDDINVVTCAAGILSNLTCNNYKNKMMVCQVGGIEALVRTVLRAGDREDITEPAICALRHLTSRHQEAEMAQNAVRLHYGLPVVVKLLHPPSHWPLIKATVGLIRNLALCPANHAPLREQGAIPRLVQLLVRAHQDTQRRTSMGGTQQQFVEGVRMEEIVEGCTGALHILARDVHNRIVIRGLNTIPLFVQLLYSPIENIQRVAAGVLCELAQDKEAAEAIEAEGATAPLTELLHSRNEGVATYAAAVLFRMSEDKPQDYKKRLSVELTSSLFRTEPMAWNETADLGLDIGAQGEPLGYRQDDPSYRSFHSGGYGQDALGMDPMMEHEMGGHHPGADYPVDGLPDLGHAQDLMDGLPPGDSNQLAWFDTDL
T1 sequence (O00512 whole entry): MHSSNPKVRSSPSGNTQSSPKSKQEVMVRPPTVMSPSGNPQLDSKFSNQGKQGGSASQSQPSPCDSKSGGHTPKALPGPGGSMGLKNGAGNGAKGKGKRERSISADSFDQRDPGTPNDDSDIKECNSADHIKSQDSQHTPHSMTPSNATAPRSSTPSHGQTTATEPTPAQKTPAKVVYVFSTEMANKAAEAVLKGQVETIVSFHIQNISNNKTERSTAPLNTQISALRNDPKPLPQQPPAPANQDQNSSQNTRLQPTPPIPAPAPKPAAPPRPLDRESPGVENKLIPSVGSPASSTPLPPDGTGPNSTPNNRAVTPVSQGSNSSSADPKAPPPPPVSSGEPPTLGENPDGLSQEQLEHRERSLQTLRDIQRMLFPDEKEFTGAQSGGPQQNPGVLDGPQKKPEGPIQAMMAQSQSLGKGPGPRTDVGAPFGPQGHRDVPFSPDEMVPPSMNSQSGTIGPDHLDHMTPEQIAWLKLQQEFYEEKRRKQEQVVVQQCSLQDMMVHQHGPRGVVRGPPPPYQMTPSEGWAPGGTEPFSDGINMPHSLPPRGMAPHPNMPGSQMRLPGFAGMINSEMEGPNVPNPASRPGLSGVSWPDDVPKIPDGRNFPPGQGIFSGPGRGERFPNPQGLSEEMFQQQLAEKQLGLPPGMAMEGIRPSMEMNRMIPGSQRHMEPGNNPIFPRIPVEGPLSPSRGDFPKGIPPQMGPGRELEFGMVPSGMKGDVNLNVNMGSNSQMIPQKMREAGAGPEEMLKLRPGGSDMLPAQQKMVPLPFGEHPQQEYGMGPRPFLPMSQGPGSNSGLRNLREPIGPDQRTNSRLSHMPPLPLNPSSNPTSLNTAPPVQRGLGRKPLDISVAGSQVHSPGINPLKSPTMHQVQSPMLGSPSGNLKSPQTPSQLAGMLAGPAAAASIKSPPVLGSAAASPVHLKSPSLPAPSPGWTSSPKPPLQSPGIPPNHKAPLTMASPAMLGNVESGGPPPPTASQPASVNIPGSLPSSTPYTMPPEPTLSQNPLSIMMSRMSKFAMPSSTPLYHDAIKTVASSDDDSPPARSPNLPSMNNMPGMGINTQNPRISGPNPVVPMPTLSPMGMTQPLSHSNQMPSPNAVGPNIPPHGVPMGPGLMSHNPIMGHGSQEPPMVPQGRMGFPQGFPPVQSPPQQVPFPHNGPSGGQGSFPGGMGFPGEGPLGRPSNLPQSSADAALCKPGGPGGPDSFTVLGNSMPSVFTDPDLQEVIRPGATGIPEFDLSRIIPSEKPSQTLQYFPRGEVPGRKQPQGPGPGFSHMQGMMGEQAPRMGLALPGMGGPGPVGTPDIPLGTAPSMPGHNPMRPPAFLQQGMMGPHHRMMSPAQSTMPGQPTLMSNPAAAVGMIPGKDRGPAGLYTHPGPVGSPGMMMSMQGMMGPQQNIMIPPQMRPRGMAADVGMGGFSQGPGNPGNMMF
The series can be described thus: Inhibition of full length beta-catenin (1 to 781 residues) (unknown origin) expressed in Escherichia coli BL21 (DE3)-N-terminal biotinylated human BCL9 (350 to 375 residues) protein-protein interaction incubated for 1 hr by Alphascreen assay. (In general: In Alpha technology, singlet oxygen from a donor bead excites a nearby acceptor bead.)

The test system of the next series is MCF-10A. The series can be described thus: Antiproliferative activity against human MCF-10A cells assessed as inhibition of cell growth measured by MTS method. The class given is functional, cell-based. (Tetrazolium assays rely on reduction of a dye to a coloured formazan, in cell work by metabolically active cells.)
In another series the test system is SW480. Kind of series: Antiproliferative activity against human SW480 cells assessed as inhibition of cell growth measured by MTS method. The class given is functional, cell-based.
Series [2] in a line: Inhibition of Wnt/beta-catenin transactivation signalling in human SW480 cells by TOPFlash reporter gene assay. The class given is cell-based. (A reporter such as luciferase makes a cellular process visible.)
A further series concerns MDA-MB-468. The series can be described thus: Antiproliferative activity against human MDA-MB-468 cells assessed as inhibition of cell growth measured by MTS method. The class given is functional, cell-based.
Another series deals with MDA-MB-231. The series can be described thus: Antiproliferative activity against human MDA-MB-231 cells assessed as inhibition of cell growth measured by MTS method. The class given is functional, cell-based.
A further series relates to HCT-116. Kind of series: Antiproliferative activity against human HCT-116 cells assessed as inhibition of cell growth measured by MTS method. The format is functional, cell-based.
Another series concerns the target T2, CYP1A2 (Homo sapiens, UniProt P05177).
T2 sequence (P05177 whole entry): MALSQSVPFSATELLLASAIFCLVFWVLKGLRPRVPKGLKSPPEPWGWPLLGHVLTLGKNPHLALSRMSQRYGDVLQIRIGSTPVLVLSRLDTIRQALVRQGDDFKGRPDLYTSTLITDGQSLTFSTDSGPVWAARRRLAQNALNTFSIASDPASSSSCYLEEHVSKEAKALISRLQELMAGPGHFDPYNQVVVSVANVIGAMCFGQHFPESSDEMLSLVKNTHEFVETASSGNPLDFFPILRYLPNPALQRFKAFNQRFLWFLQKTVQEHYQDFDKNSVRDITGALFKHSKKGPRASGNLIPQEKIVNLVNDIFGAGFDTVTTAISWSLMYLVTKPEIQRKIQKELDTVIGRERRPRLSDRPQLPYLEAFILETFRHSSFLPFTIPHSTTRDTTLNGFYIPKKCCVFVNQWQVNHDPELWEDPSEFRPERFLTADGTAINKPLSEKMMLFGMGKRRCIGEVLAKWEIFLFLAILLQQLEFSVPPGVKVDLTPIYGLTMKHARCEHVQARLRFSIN
The series can be described thus: Inhibition of CYP1A2 in human liver microsomes using phenacetin at 10 uM in presence of NADPH incubated for 10 mins. The format is ADME, Microsome. Particulars: probe phenacetin.

Another series deals with CYP2C9 (Homo sapiens, UniProt P11712). Kind of series: Inhibition of CYP2C9 in human liver microsomes using tolbutamide as substrate at 10 uM in presence of NADPH incubated for 10 mins. The format is ADME, Microsome. Particulars: probe tolbutamide.
Sequence of CYP2C9 (P11712 whole entry): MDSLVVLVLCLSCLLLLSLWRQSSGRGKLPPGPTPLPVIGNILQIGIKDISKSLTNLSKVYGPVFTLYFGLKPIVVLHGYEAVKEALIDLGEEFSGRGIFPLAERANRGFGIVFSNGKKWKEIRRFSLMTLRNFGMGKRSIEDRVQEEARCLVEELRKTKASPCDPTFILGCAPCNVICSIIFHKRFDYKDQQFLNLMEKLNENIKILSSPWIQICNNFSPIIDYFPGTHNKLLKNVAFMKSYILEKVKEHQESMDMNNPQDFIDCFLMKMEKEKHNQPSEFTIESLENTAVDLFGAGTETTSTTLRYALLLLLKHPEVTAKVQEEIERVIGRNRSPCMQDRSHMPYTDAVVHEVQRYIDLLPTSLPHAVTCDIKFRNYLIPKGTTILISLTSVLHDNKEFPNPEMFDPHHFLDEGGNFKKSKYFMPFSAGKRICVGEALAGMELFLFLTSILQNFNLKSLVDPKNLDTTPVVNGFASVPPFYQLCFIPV
A further series deals with CYP2D6 (Homo sapiens, UniProt P10635). Kind of series: Inhibition of CYP2D6 in human liver microsomes using bufuralol as substrate at 10 uM in presence of NADPH incubated for 10 mins. The class given is ADME, Microsome. Particulars: probe bufuralol.
Sequence of CYP2D6 (P10635 whole entry): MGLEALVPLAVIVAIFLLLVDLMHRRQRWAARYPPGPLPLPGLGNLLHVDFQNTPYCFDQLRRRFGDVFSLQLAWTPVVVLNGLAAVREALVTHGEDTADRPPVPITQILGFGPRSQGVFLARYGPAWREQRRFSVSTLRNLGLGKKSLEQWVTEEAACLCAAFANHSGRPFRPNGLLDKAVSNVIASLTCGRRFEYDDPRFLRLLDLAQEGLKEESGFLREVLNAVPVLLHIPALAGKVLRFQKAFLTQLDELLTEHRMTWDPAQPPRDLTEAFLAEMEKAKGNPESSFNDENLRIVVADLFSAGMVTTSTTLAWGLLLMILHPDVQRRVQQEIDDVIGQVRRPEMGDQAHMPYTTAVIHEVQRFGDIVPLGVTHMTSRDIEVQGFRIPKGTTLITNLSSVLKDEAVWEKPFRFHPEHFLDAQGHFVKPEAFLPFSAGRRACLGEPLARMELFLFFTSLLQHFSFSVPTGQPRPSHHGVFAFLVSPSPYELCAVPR
A further series deals with CYP3A4 (Homo sapiens, UniProt P08684). Kind of series: Inhibition of CYP3A4 in human liver microsomes using Midazolam as substrate at 10 uM in presence of NADPH incubated for 10 mins. The format is ADME, Microsome. To be noted: probe midazolam.
Sequence of CYP3A4 (P08684 whole entry): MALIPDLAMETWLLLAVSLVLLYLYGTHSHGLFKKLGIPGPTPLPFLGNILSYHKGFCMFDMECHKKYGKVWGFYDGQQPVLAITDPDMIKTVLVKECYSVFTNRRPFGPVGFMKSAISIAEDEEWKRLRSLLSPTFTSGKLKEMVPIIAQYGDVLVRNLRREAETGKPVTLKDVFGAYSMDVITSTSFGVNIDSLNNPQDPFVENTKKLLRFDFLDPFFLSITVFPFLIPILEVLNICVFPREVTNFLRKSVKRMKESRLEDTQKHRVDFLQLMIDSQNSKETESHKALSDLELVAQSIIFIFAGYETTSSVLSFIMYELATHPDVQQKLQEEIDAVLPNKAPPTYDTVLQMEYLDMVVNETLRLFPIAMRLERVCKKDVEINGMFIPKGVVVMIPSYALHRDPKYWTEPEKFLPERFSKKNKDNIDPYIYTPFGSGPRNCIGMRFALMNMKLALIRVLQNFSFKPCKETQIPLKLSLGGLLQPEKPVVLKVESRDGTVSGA

A word on the IC50: it is the concentration needed to halve the response being measured. As a reminder, the Ki is a measure of affinity in units of concentration, obtained from inhibition or displacement. A higher Ki goes with weaker binding. In series [1], `O=C(C(Oc1cccc(N2CCC[C@@H](C(=O)N(Cc3ccc(-c4cn[nH]c4)cc3)C3CC3)C2)c1)c1ccccc1)N1CCNCC1` (some centres not stated) showed an IC50 of 23 µM and a Ki of 21 µM.
In the case of `CC(C)(Oc1cccc(N2CCC[C@@H](C(=O)N(Cc3ccc(-c4cn[nH]c4)cc3)C3CC3)C2)c1)C(=O)N1C[C@H]2CNC[C@H]2C1`, in [1], half-maximal inhibition (IC50) required 8.3 µM and affinity was put at a Ki of 6.8 µM.
In the same order, the values of `CC(C)(Oc1cccc(N2CCC[C@@H](C(=O)N(Cc3ccc(-c4cn[nH]c4)cc3)C3CCC3)C2)c1)C(=O)N1CCNCC1` are 12 µM and 11 µM.
Regarding `CC(C)(Oc1cccc(N2CCC[C@@H](C(=O)N(Cc3ccc(-c4cn[nH]c4)cc3)C3CC3)C2)c1)C(=O)N1CC2(CNC2)C1`, in series [1], the midpoint of inhibition, the IC50, lay at 44 µM and the affinity corresponds to a Ki of 37 µM.
In [1], `CC(C)(Oc1cccc(N2CCC[C@@H](C(=O)N(Cc3ccc(-c4cn[nH]c4)cc3)C3CCCC3)C2)c1)C(=O)N1CCNCC1` displayed an IC50 of 7.6 µM and a Ki of 6.8 µM.
Turning to `CC(C)(Oc1cccc(N2CCC[C@@H](C(=O)N(Cc3ccc(-c4c[nH]c5ncccc45)cc3)C3CC3)C2)c1)C(=O)N1CCNCC1`, the IC50 amounted to 24 µM in the series with MCF-10A; 0.96 µM in [1]; 9.7 µM in the series with SW480; 11 µM in series [2]; 5 µM with MDA-MB-468; 4.6 µM in the series on MDA-MB-231. For the same molecule, the IC50 with HCT-116 came out at 8.1 µM. This molecule also yielded a Ki in series [1] of 0.85 µM.
In the case of `CN(Cc1ccc(-c2cn[nH]c2)cc1)C(=O)[C@@H]1CCCN(c2cccc(OC(C)(C)C(=O)N3CCNCC3)c2)C1`, in [1], the IC50 was determined as 28 µM and the affinity corresponds to a Ki of 25 µM.
As for `CC(C)N(Cc1ccc(-c2cn[nH]c2)cc1)C(=O)[C@@H]1CCCN(c2cccc(OC(C)(C)C(=O)N3CCNCC3)c2)C1`, in series [1], 8.9 µM corresponded to half-maximal inhibition (IC50) and affinity was put at a Ki of 8 µM.
As to `CC(C)(Oc1cccc(N2CCC[C@@H](C(=O)N(Cc3ccc(-c4cccc5[nH]ncc45)cc3)C3CC3)C2)c1)C(=O)N1CCNCC1`, in series [1], the IC50 amounted to 2.5 µM and the Ki was determined as 2 µM.
In the same order, the values of `O=C([C@@H]1CCCN(c2cccc(OC3(C(=O)N4CCNCC4)CC3)c2)C1)N(Cc1ccc(-c2cn[nH]c2)cc1)C1CC1` are 29 µM and 24 µM.
In the case of `CC(C)(Oc1cccc(N2CCC[C@@H](C(=O)N(Cc3ccc(-c4cn[nH]c4)cc3)CC3CC3)C2)c1)C(=O)N1CCNCC1`, in [1], the IC50 worked out at 18 µM and the Ki is 15 µM.
In the same order, the values of `CC(C)(Oc1cccc(N2CCC[C@@H](C(=O)N(Cc3ccc(-c4cn[nH]c4)cc3)C3CC3)C2)c1)C(=O)N1CC2(CCNCC2)C1` are 38 µM and 31 µM.
In series [1], `O=C([C@@H]1CCCN(c2cccc(OC3(C(=O)N4CCNCC4)CCCC3)c2)C1)N(Cc1ccc(-c2cn[nH]c2)cc1)C1CC1` yielded an IC50 of 43 µM and a Ki of 39 µM.
With `CC(C)(Oc1cccc(N2CCC[C@@H](C(=O)N(Cc3ccc(-c4ccnc5[nH]ccc45)cc3)C3CC3)C2)c1)C(=O)N1CCNCC1`, the IC50 stood at 29 µM with MCF-10A; 2.2 µM in [1]; 10 µM with SW480; 15 µM in [2]; 5.5 µM in the series on MDA-MB-468; 6.5 µM in the series on MDA-MB-231. Moreover, the IC50 in the series with HCT-116 was found to be 7.7 µM. Also, affinity in [1] was put at a Ki of 1.8 µM.
On to `CC(C)(Oc1cccc(N2CCC[C@@H](C(=O)NCc3ccc(-c4cn[nH]c4)cc3)C2)c1)C(=O)N1CCNCC1`, for which, in series [1], 81 µM corresponded to half-maximal inhibition (IC50) and the Ki was determined as 73 µM.
Usually inhibition stands for the change of the read-out against control, counted positive when it falls. Regarding `CC(C)(Oc1cccc(N2CCC[C@@H](C(=O)N(Cc3ccc(-c4cn[nH]c4)cc3)C3CC3)C2)c1)C(=O)N1CCNCC1`, the inhibition at 10 min, 10 µM was 17% on CYP1A2, 83% at CYP2C9, 73% on CYP2D6 and 96% on CYP3A4.
In [1], `CC(C)(Oc1cccc(N2CCC[C@@H](C(=O)N(Cc3ccc(-c4cn[nH]c4)cc3)C3CC3)C2)c1)C(=O)N1CCC2(CCNC2)C1` (some centres not stated) showed a half-inhibitory concentration (IC50) of 12 µM and a Ki of 9.8 µM.
In the same order, the values of `CC(C)(Oc1cccc(N2CCC[C@@H](C(=O)N(Cc3ccc(-c4c[nH]c5ccccc45)cc3)C3CC3)C2)c1)C(=O)N1CCNCC1` are 1.4 µM and 1.2 µM.
In series [1], `CC(C)(Oc1cccc(N2CCC[C@@H](C(=O)N(Cc3ccc(-c4cn[nH]c4)cc3)C3CC3)C2)c1)C(=O)N1CCC2(CNC2)C1` returned an IC50 of 20 µM and a Ki of 16 µM.

Source of the values: ChEMBL document CHEMBL5154919, “New ZW4864 Derivatives as Small-Molecule Inhibitors for the β-Catenin/BCL9 Protein-Protein Interaction” (ACS Med Chem Lett, 2022).
